The test addresses T1, AAC(6′)-Ie-APH(2′′)-Ia (Staphylococcus aureus, UniProt P0A0C1).
T1 construct: gene aacA-aphD; purified bifunctional enzyme (AAC and APH domains)
The test can be described thus: absorbance at […] nm, DTNB detection of released CoA-SH. In kind it is biochemical. The settings on record: AAC activity; co-substrate gentamicin 112 µg/mL.

T1 sequence (P0A0C1 whole entry, the tested form may be a part): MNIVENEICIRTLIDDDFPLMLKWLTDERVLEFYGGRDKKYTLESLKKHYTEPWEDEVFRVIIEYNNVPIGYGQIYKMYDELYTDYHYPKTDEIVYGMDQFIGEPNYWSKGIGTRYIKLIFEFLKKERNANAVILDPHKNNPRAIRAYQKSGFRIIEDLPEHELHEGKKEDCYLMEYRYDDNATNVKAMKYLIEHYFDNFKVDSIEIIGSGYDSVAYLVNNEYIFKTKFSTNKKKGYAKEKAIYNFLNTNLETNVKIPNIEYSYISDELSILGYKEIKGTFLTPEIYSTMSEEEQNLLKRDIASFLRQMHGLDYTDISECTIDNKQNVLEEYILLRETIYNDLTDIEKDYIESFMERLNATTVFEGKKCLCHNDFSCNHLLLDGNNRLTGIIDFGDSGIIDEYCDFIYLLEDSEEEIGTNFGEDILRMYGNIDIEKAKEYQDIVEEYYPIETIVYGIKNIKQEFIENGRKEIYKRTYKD

`CC(=O)SCCNC(=O)CCNC(=O)[C@H](O)C(C)(C)COP(=O)(O)OP(=O)(O)OC[C@H]1O[C@@H](n2cnc3c(N)ncnc32)[C@H](O)[C@@H]1OP(=O)(O)O` [acetyl CoA]: the “absorbance at 412 nm, DTNB detection of released CoA-SH” value is recorded as “CoA–SH that is derived from acetyl CoA after antibiotic acetylation”.

For the origin of these results see publication PMC7235042, “Venturicidin A, A Membrane-active Natural Product Inhibitor of ATP synthase Potentiates Aminoglycoside Antibiotics” (Scientific Reports, 2020).
